Measured values as given in patent US20240197871A1, “COMBINATION OF A CAR T CELL THERAPY AND AN IMMUNOMODULATORY COMPOUND FOR TREATMENT OF LYMPHOMA” (Juno Therapeutics, Inc., priority 2021, published 2024).

Columns and labels:
[1] = test system: Granta-519 lymphoma tumor spheroids; experiment: Chronic stimulation with concurrent treatment, re-challenge with tumor spheroids; type: cell-based
Procedure: To simulate conditions of chronic stimulation, anti-CD19 CAR-expressing T cells, produced as described in Example 1, were incubated with plate-bound CAR-specific anti-idiotypic antibody (see, e.g., WO2018/023100) and incubated at 37° C. for a period of six days. […] For instance, CAR T cells that were re-challenged with CD19+ tumor cells following the six-day stimulation had reduced IFNγ and IL-2 cytokine production (FIG. 3A) and reduced cytolytic function (FIG. 3B) compared to freshly thawed CAR T cells not subjected to the six-day stimulation.
The ability of Compound C to block or reduce this CAR T cell hypofunctionality following chronic stimulation was assessed. To do so, engineered CAR T cells were concurrently treated with Compound C, Compound 2, or a vehicle control during the six-day stimulation. Stimulated CAR T cells were then harvested, washed twice in media, and re-challenged with Granta-519 lymphoma tumor spheroids (that had been transduced with IncuCyte NucLight Red) in the absence of Compound C, after which cytolytic activity was assessed by loss of red fluorescence over time and averaged measurement of tumor spheroid size at various times following co-culture with CAR-T cells. Cytokine production, Ikaros expression, and gene expression of the CAR T Cells also were assessed.
FIGS. 3D and 3E show the volume of tumor spheroids co-cultured with CAR T cells that were stimulated in the presence of Compound C after chronic stimulation. As shown in FIG. 3D and FIG. 3E, cytolytic activity during re-challenge was improved by treatment with Compound C at a 1 nM concentration during stimulation (**** P<0.0001).

[2] = test system: Raji lymphoma tumor spheroids; experiment: Simulated intermittent dosing during chronic stimulation, re-challenge with tumor spheroids; type: cell-based; conditions: for cytolytic activity of chronically stimulated CAR T cells over four-day re-challenge: P<0.0001
Procedure: The effects of an intermittent Compound C dosing schedule on CAR T cells was assessed.
Anti-CD19 CAR-expressing T cells, produced as described in Example 1, were chronically stimulated as described in Example 3 in the presence of Compound C. During chronic stimulation, Compound C was present at (i) 50 nM for one day and 1 nM for the remaining five days, (ii) 25 nM for one day and 0.5 nM for the remaining five days, (iii) 10 nM for one day and absent for the remaining five days, or (iv) 1 nM for all six days. Stimulated CAR T cells were then re-challenged with Raji lymphoma tumor spheroids in the absence of Compound C, after which cytolytic activity was assessed.
Similar results are shown in FIG. 7B for a separate experiment in which CAR T cells were chronically stimulated for 7 days in the presence or absence of Compound C. In this experiment, Compound C was present at (i) 50 nM for one day and 1 nM for the remaining six days of stimulation, (ii) 25 nM for one day and 0.5 nM for the remaining six days of stimulation, (iii) 10 nM for all seven days of stimulation, or (iv) 1 nM for all seven days of stimulation. Stimulated CAR T cells were then re-challenged with Raji lymphoma tumor spheroids in the absence of Compound C, after which cytolytic activity was assessed over a four-day period. […] The CAR T cells stimulated for seven days in the presence or absence of Compound C were also analyzed for phenotypic T cell memory markers using flow cytometry following chronic stimulation. […] CD27/CCR7 expression, which is a marker for less differentiated, naïve-like T cells, was highest in CAR-expressing CD8 T cells stimulated in the presence of Compound C at 50 nM for one day and 1 nM for the remaining six days of stimulation (* P<0.05).

anti-CD19 CAR T cells [3] = experiment: Intracellular cytokine levels in stimulated anti-CD19 CAR T cells; type: cell-based, human; conditions: 72 hours, 30 μg/mL anti-idiotypic antibody
Procedure: (§1) Anti-CD19 CAR-expressing T cell compositions were generated from three different healthy donors as described in Example 1. Prior to use, cryopreserved CD4+ and CD8+ engineered cell compositions were thawed and combined at approximately a 1:1 CD4:CD8 ratio.
(§2) Following incubation, stimulated CAR T cells were harvested, washed twice in media, and assessed.
Intracellular cytokine levels in CAR T cells that had been stimulated for 72 hours with 30 μg/mL of anti-idiotypic antibody were determined. To do so, supernatants were collected from the stimulated CAR T cells and were analyzed for interferon-γ (IFN-γ) and interleukin-2 (IL-2) content using a multiplex electrochemiluminescence assay. To stain for intracellular cytokines, including Perforin and Granzyme B, cells were fixed and permeabilized using a Foxp3/Transcription Factor Staining Buffer Set (Thermo Fisher Scientific). Intracellular cytokine levels of IFNγ, perforin, granzyme B, and IL-2 were then determined by flow cytometry. […] Log2 fold-change values greater than zero are indicated with a “+” in FIG. 2F. Similar results were observed when measuring the percentage of cells positive for the cytokines.

anti-CD19 CAR T cells [4] = experiment: Cell cycle phase (EdU incorporation) of stimulated anti-CD19 CAR T cells; type: cell-based, human; conditions: for percentage of cells in G1 phase: P<0.001
Procedure: as §1, §2
The cell cycle phases of CAR T cells treated with the compounds during CAR-specific stimulation with the plate-bound anti-idiotypic antibody were determined using EDU incorporation for two hours after three days of stimulation. For EDU incorporation, CAR T cells were labeled using the Click-iT™ EdU Cell Proliferation Kit (Thermo Fisher Scientific), after which the prepared cells were analyzed by flow cytometry. […] Without wishing to be bound by theory, the accumulation of CAR T cells in G1 phase may account for one of the mechanisms by which the compounds can limit onset of exhaustion during chronic stimulation, as shown in Example 3 below.

SMILES: O=C1CC[C@H](N2C(=O)c3cccc(NCc4ccc(CN5CC(N6CCOCC6)C5)cc4F)c3C2=O)C(=O)N1 [Compound C, (S)-2-(2,6-dioxopiperidin-3-yl)-4-((2-fluoro-4-((3-morpholinoazetidin-1-yl)methyl)benzyl)amino)isoindoline-1,3-dione]
- IFNγ production in supernatant five days after re-challenge ([1]; 1 nM concurrently during chronic stimulation, P<0.0001): improved IFNγ production
- cytolytic activity during re-challenge (tumor spheroid volume) ([1]; 1 nM during six-day chronic stimulation (concurrent), P<0.0001): improved
- IFNγ production in supernatant five days after re-challenge ([1]; 10 nM during chronic stimulation, P<0.001, lesser extent than 1 nM): increased IFNγ production
- tumor size at day 9 of co-culture ([1]; 10 nM during six-day chronic stimulation (concurrent), P<0.05, lesser extent than 1 nM): reduced tumor size
- cytolytic activity of chronically stimulated CAR T cells (tumor cell number during re-challenge) ([2]; 25 nM for one day and 0.5 nM for the remaining five days of stimulation): most increase in cytolytic activity
- cytolytic activity of chronically stimulated CAR T cells over four-day re-challenge ([2]; 25 nM for one day and 0.5 nM for the remaining six days of stimulation): improved cytolytic activity
- cytolytic activity of chronically stimulated CAR T cells (tumor cell number during re-challenge) ([2]; 50 nM for one day and 1 nM for the remaining five days of stimulation): most increase in cytolytic activity
- cytolytic activity of chronically stimulated CAR T cells over four-day re-challenge ([2]; 50 nM for one day and 1 nM for the remaining six days of stimulation): improved cytolytic activity
- intracellular expression of effector cytokines (IFNγ, perforin, granzyme B), fold change in MFI vs vehicle (anti-CD19 CAR T cells [3]): increased production of certain cytokines
- dose with similar effects on percentage of cells in G1 phase, compared to the other compounds tested (anti-CD19 CAR T cells [4]): ten- or hundred-fold lower dose
- percentage of cells in G1 phase (anti-CD19 CAR T cells [4]; 1 nM): increased
- percentage of cells in G1 phase (anti-CD19 CAR T cells [4]; 10 nM): increased
- effect on percentage of cells in G1 phase compared with the other compounds (anti-CD19 CAR T cells [4]; at all doses tested): most effect on the percentage of cells in G1 phase
